A word on the Kd: it is the free concentration of one partner at which half of the binding sites on the other are occupied at equilibrium, for simple one-to-one binding. For orientation: koff means the rate constant with which the complex falls apart.

Test [1] has as its target Wheat HPPD (Triticum aestivum, UniProt A0A3B6NLC6). The test is described as follows: Dissociation of enzyme/inhibitor complexes by exchange with 14C-labelled inhibitor (koff; Kd = koff/kon). It is filed as binding. The source says: (§1) Herbicidal inhibitors of HPPD are found here to have generally low values of koff (in the range less than 0.0003 s^−1, often less than 0.000001 s^−1). It will be appreciated that many suitable methods known in the art for determining such low koff values are suitable for working the current invention. These include measuring rates of exchange of radio or otherwise labelled inhibitors either with or away from the enzyme inhibitor complex. For example enzyme inhibitor complexes can readily be prepared by incubating HPPD preparations with labelled or unlabelled inhibitor and then, after suitable periods, optionally rapidly separating the thus formed enzyme inhibitor complex from excess inhibitor by any suitable method such as ultrafiltration, binding to filters or exchange down a gel filtration column. Exchange reactions with the, thus prepared enzyme inhibitor complex is then initiated by addition of, as appropriate, excess labelled or unlabelled inhibitor. HPPD preparations suitable for use in the methods of the current invention are relatively unpurified, buffer-exchanged, supernatant fractions of spun crude lysates of E. coli strains engineered to express the HPPD enzyme of interest at a level of, typically, about 0.25-10% of the total soluble protein. Many methods such as radiometric, fluorimetric, NMR, fluorescence depolarisation, EPR, Mossbauer, UV/VIS spectrophotometry etc. or phonon resonance can, in principle, be used to monitor the enzyme/ligand exchange reactions and, particularly in this case where the enzyme contains an iron atom at the ligand binding site. Optionally, the monitoring method may be continuous (as, for example, with scintillation proximity/bead-based methods) or, discontinuous, based upon collection of data at various timepoints wherein samples are removed and the bound and unbound label components rapidly separated and quantitated.
Values of koff can suitably be calculated by computer fitting based upon is numerical integration of the exchange data along with information on the active-site concentration of HPPD and upon kon values obtained as described below. […] In any event, koff values are always here calculated from the rate of the major slow exchange reaction. It will be appreciated that within the scope of the current invention many methods of making the desired kinetic comparisons are possible without explicit or rigorous determination of off rates but, based upon the same underlying principle, will achieve the same selection result.
The dissociation rates (off rates) of inhibitors selected from Formula 1 and/or 2 and/or 3 and/or 4 from the complexes that they form with test and control HPPD enzymes are suitably measured in a number of ways. Thus, for example, the rates of dissociation of mesotrione, a compound selected from Formula 1 and of the diketonitrile of isoxaflutole, a compound selected from Formula 3 from their respective complexes with, test, wheat HPPD and with, control, Arabidopsis HPPD are compared. The method and results from a typical test are as follows.
^14C mesotrione is of specific activity 1.12 GBq/mmol. This is ˜95% pure radiochemically by TLC and based upon the proportion of material tight-binding to HPPD. Arabidopsis and, (test), wheat HPPD are each diluted to a concentration of ˜0.45 and 0.54 μM, respectively into 1.6 ml of 50 mM Bis-Tris propane buffer at pH 7.0 containing 25% glycerol, 25 mM sodium ascorbate and 3 mg/l of bovine catalase (Sigma C3155˜50,000 units/mg) containing […] ^14C mesotrione and left to react at 25 C for 2.5-3 h. Following this initial binding reaction, exchange reactions are initiated by addition of cold mesotrione to a final concentration of 60 μM and 200 μl aliquots removed at various times to rapid chromatography down a NAP5 gel filtration column equilibrated in 50 mM BTP at pH 7 containing 0.1 M KCl, separation into fractions containing protein-bound or free radiolabel and liquid scintillation counting. […]

For test [2], the target named is T1, Arabidopsis HPPD (Arabidopsis thaliana, UniProt P93836).
T1 construct: made in house; host or cells: E. coli BL21 (DE3) codon+ RP
T1 sequence (P93836 1-445): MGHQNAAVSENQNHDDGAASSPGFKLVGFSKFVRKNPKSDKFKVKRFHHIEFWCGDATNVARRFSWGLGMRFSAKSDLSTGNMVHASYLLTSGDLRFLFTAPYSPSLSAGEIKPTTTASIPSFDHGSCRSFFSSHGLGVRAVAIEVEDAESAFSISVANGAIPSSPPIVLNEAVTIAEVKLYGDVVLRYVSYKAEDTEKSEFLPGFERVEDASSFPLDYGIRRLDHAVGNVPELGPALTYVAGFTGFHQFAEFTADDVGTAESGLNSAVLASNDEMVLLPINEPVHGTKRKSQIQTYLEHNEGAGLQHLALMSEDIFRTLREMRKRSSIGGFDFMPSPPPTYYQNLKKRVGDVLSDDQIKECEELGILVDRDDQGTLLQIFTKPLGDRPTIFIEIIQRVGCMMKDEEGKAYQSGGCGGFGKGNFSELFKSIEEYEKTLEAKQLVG
The test is described as above. It is filed as binding. The procedure: as §1, with “It” for “Herbicidal inhibitors of HPPD are found here to have generally low values of koff (in the range less than 0.0003 s^−1, often less than 0.000001 s^−1). It”, “HPPD preparations suitable for use in the methods of the current invention are relatively unpurified, buffer-exchanged, supernatant fractions of spun crude lysates of E. coli strains engineered to express the HPPD enzyme of interest at a level of, typically, about 0.25-10% of the total soluble protein.” left out
Values of koff can suitably be calculated by computer fitting based upon is numerical integration of the exchange data along with information on the active-site concentration of HPPD and upon kon values obtained as described below. […] In any event, koff values are always here calculated from the rate of the major slow exchange reaction.
^14C mesotrione is of specific activity 1.12 GBq/mmol. […] Following this initial binding reaction, exchange reactions are initiated by addition of cold mesotrione to a final concentration of 60 μM and 200 μl aliquots removed at various times to rapid chromatography down a NAP5 gel filtration column equilibrated in 50 mM BTP at pH 7 containing 0.1 M KCl, separation into fractions containing protein-bound or free radiolabel and liquid scintillation counting.
Nevertheless, here, for practical purposes, koff values are always here calculated from the rate of the major slow exchange reaction.
Not all test inhibitors are readily available in a radiolabelled form.

For test [3], the system named is dicot plants. As to the kind of experiment: Herbicidal activity versus dicot plants averaged over 6 or more species. The note with it: in vivo. The source says: Activity versus dicot plants refers here to herbicidal activity averaged over a range of 6 or more of those dicot weed and crop species usually used in screens used for compound discovery in the agrochemical community. Herbicidal activity versus dicot plants also refers here to that activity which is due to the inhibitor per se rather than due to some, potentially more herbicidal, metabolite of it which may be formed in planta or otherwise.

The mark [4] stands for this setting: Kd, value obtained + glycerol (in parentheses).
Where [5] appears, read: Kd, without glycerol, Kd = koff/kon.
[6] abbreviates: dissociation constant (Kd), in water at pH 7.0 and at 25 C.

Values joined by “and” are separate entries in the source; they are usually repeats but may differ in a detail not shown here. Equal entries are not always repeated. Where two headings read alike, the source gives them in different places.

Sequence of Wheat HPPD (A0A3B6NLC6 entry or part of it): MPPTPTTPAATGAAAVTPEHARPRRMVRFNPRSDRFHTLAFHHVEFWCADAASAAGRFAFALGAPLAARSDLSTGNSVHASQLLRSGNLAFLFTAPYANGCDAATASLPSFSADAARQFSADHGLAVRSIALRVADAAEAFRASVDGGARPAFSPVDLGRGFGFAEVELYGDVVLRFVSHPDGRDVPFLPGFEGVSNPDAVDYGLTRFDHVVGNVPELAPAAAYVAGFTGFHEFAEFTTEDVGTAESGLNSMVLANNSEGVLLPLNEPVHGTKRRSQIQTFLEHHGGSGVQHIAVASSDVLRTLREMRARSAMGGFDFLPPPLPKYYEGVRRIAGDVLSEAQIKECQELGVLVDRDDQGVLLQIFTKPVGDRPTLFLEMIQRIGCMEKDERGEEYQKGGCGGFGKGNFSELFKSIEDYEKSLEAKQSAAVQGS

In the case of `CS(=O)(=O)c1ccc(C(=O)C2C(=O)CCCC2=O)c([N+](=O)[O-])c1` [Structure I, 2-(Nitro-4-methanesulphonylbenzoyl)-cyclohexane-1,3-dione, reference compound], the Kd in test [1] (setting [4]) is 6.33 nM; in test [1] (setting [5]), 7.41 nM; in test [1] (setting [6]), 6.5 to 7.5 nM; in test [2] (setting [4]), 0.021 nM; in test [2] (setting [5]) it was 0.014 nM.

Turning to `Cc1nc(C(F)(F)F)ccc1C(=O)C1C(=O)C2CCC(C2)C1=O` (stereo not drawn) [Structure II], the “ratio Kd2/Kd4, structure II to structure VII” value in test [1] came to 38; in test [2], 3.4. For the same molecule, the “ratio koff2/koff4, structure II to structure VII” value in test [1] was 30 and 42; in test [2], 11 and 8.6. The figures for the dissociation constant Kd in test [1] (setting [5]), in test [1] (setting [6]) and in test [2] were 6.73 nM, 6.5 to 7.5 nM and 0.11 nM, respectively. Also, the off-rate (koff) in test [1] (in water at pH 7.0 and at 25 C, values of Table 3 restated) was 0.00035 s⁻¹; in test [1] (pH 7, in water at pH 7.0 and at 25 C, values of Table 3 restated) it was 0.00025 s⁻¹; in test [1] (− glycerol), 0.00025 s⁻¹ and 0.00035 s⁻¹; in test [2] (without 25% v/v glycerol, exchange with 14C mesotrione), around 1.16e-05 s⁻¹; in test [2] (− glycerol) it was 1.16e-05 s⁻¹. Moreover, the “herbicidal activity versus dicot plants relative to mesotrione” value in test [3] is on record as “at least a quarter of the herbicidal activity of mesotrione”.

The values are drawn from US20090172831A1, “Methods for the production of plants resistant to HPPD herbicides” (Syngenta Limited, priority 2000, published 2009).
